Key:
Format in all cases: in vivo
C57BL/6 DIO mice [1] = assay: Nestlet shredding test in C57BL/6 DIO mice; conditions: Belaronib 0.3 mg/kg SC, Celastrol 0.2 mg/kg IP daily, mean
Experimental: (§1) C57BL/6 mice were treated with test compound (Celastrol) or controls as shown in the table below from Day 1 to Day 15. […] One mouse was excluded from the study because it appeared resistant to nestlet shredding prior to treatment.
(§2) Male C57BL/6 DIO mice were obtained from Jackson Labs (Bar Harbor, ME). The mice arrived at ages 17 weeks and mice were housed 3 per cage on arrival. Prior to dosing in the study, the mice were singly housed.
(§3) All treatment volumes were 10 mL/kg. Utilizing the art-recognized nestlet shredding mouse model, […]. Celastrol and the vehicle control were administered intraperitoneally using a 30G needle. Beloranib was administered subcutaneously using a 30G needle. All treatments were administered daily in the afternoon at 17:00 h, 1 hour before dark cycle from Day 1 to end of dosing.
(§4) Celastrol was dissolved in a pharmaceutically-acceptable excipient, e.g., 50% Solutol/50% DMAC, and this stock solution aliquoted and stored at −80° C. until treatment day. On the day of treatment, an aliquot of the stock solution was thawed and diluted […] with saline to obtain the desired dosing solution strength in 5% Solutol/5% dimethylacetamide/90% saline. The vehicle control was 5% Solutol/5% dimethylacetamide/90% saline. Beloranib was dissolved in 100% DMSO, and this stock solution was aliquoted and stored at −80° C. until treatment day. On the day of treatment, an aliquot of the stock solution was thawed and diluted 1:10 with deionized (DI) water to obtain the desired dosing solution strength in 10% DMSO.
The nestlet shredding test is an art-recognized animal model for human repetitive, anxiety, and/or compulsive behaviors. In the nestlet shredding test, a nestlet comprised of pulped fiber, e.g., cotton fiber, is preweighed and placed on top of cage bedding and the amount of the nestlet remaining intact after a test session of pre-determined time is evaluated.
Nestlet shredding was determined on day 1, day 6, day 11 and day 15 by placing a fresh nestlet prior to the dark cycle and measuring the weight of the remaining nestlet at 12 and 24 hours on an Ohaus model CS 200 balance. Percent shredding was calculated based on the initial nestlet weight.

C57BL/6 DIO mice [2] = assay: Daily food intake of C57BL/6 DIO mice; conditions: for Food intake (food weights in g/day): Belaronib 0.3 mg/kg SC, Celastrol 0.2 mg/kg IP daily, mean
Experimental: as §1, §2, §3, §4
Daily food intake was calculated based on remaining food weight compared to food weight on the previous day using an Ohaus model CS 200 balance.

C57BL/6-Magel2 mice = assay: Body weights of C57BL/6 Magel2 mice during daily treatment; conditions: 0.2 mg/kg IP QD; for Body weights (expressed as a percentage of day-1 weight) / Body weights (in grams): mean; for body weight lost from day 1 to day 21: vehicle +2.7%
Experimental: (§5) In the study disclosed herein, celastrol at was administered intraperitoneally using a 30G needle at a dose of 0.2 mg/kg to five female Magel2 homozygous mice (−/−) and four male mice heterozygous for Magel2 (−/+). In addition, vehicle was administered to four male mice heterozygous for Magel2 (−/+) for 21 days.
C57BL/6-Magel2 mice were bred for purpose from cryo recovery by Jackson Labs (Bar Harbor, ME) and arrived at the testing facility at age 8 weeks.
as §3, with “needle.” for “needle. Beloranib was administered subcutaneously using a 30G needle.”
Celastrol was dissolved in 50% Solutol/50% DMAC. The resulting stock solution aliquoted and stored at −80° C. until treatment day. On the day of treatment an aliquot of the stock solution was thawed and diluted 1:20 with saline to obtain the desired dosing solution strength in 5%
Mouse body weights were recorded from an Ohaus model CS 200 balance. Mice were weighed daily on Day 1 to Day 21. Body weight changes are expressed as grams and percent of the initial body weight (on Day 1, when treatments began).

Magel2 mice = assay: Deaths and clinical signs, Magel2 study; conditions: 0.2 mg/kg IP for 21 days
Experimental: as §5

[3] = Day 1, Magel2 (−/+) heterozygous male mice
[4] = Day 1, Magel2 (−/−) homozygous female mice
[5] = Day 2, Magel2 (−/+) heterozygous male mice
[6] = Day 2, Magel2 (−/−) homozygous female mice
[7] = Day 4, Magel2 (−/+) heterozygous male mice
[8] = Day 4, Magel2 (−/−) homozygous female mice
[9] = Day 6, Magel2 (−/+) heterozygous male mice
[10] = Day 6, Magel2 (−/−) homozygous female mice
[11] = Day 8, Magel2 (−/+) heterozygous male mice
[12] = Day 8, Magel2 (−/−) homozygous female mice
[13] = Day 10, Magel2 (−/+) heterozygous male mice
[14] = Day 10, Magel2 (−/−) homozygous female mice
[15] = Day 11, Magel2 (−/+) heterozygous male mice
[16] = Day 11, Magel2 (−/−) homozygous female mice
[17] = Day 13, Magel2 (−/+) heterozygous male mice
[18] = Day 13, Magel2 (−/−) homozygous female mice
[19] = Day 15, Magel2 (−/+) heterozygous male mice
[20] = Day 15, Magel2 (−/−) homozygous female mice
[21] = Day 17, Magel2 (−/+) heterozygous male mice
[22] = Day 17, Magel2 (−/−) homozygous female mice
[23] = Day 18, Magel2 (−/+) heterozygous male mice
[24] = Day 18, Magel2 (−/−) homozygous female mice
[25] = Day 20, Magel2 (−/+) heterozygous male mice
[26] = Day 20, Magel2 (−/−) homozygous female mice
[27] = Day 21, Magel2 (−/+) heterozygous male mice
[28] = Day 21, Magel2 (−/−) homozygous female mice

SMILES: CC1=C(O)C(=O)C=C2C1=CC=C1[C@@]2(C)CC[C@@]2(C)[C@@H]3C[C@](C)(C(=O)O)CC[C@]3(C)CC[C@]12C [Celastrol]
- Nestlet Shredding (percent of nestlet shredded) (C57BL/6 DIO mice [1]; Day 1, 12 hour): 94.4%
- Nestlet Shredding (percent of nestlet shredded) (C57BL/6 DIO mice [1]; Day 6, 12 hour): 70.1%
- Nestlet Shredding (percent of nestlet shredded) (C57BL/6 DIO mice [1]; Day 6, 24 hour): 93.6%
- Nestlet Shredding (percent of nestlet shredded) (C57BL/6 DIO mice [1]; Day 11, 12 hour): 43.7%
- Nestlet Shredding (percent of nestlet shredded) (C57BL/6 DIO mice [1]; Day 11, 24 hour): 71.0%
- Nestlet Shredding (percent of nestlet shredded) (C57BL/6 DIO mice [1]; Day 15, 12 hour): 50.9%
- Nestlet Shredding (percent of nestlet shredded) (C57BL/6 DIO mice [1]; Day 15, 24 hour): 63.3%
- cumulative food intake, average total for the study (C57BL/6 DIO mice [2]; 15-day study, Beloranib 0.3 mg/kg SC, celastrol 0.2 mg/kg IP daily, vehicle 32.6 g): 17.4 g/mouse
- effect on food intake (in words) (C57BL/6 DIO mice [2]; Celastrol compared with positive control Beloranib): more potent and sustained effect on food intake
- Food intake (food weights in g/day) (C57BL/6 DIO mice [2]; Day 1): 2.7 g/day
- Food intake (food weights in g/day) (C57BL/6 DIO mice [2]; Day 2): 1.2 g/day
- Food intake (food weights in g/day) (C57BL/6 DIO mice [2]; Day 3): 1.1 g/day
- Food intake (food weights in g/day) (C57BL/6 DIO mice [2]; Day 4): 0.9 g/day
- Food intake (food weights in g/day) (C57BL/6 DIO mice [2]; Day 5): 0.7 g/day
- Food intake (food weights in g/day) (C57BL/6 DIO mice [2]; Day 6): 0.9 g/day
- Food intake (food weights in g/day) (C57BL/6 DIO mice [2]; Day 7): 1.1 g/day
- Food intake (food weights in g/day) (C57BL/6 DIO mice [2]; Day 8): 1.2 g/day
- Food intake (food weights in g/day) (C57BL/6 DIO mice [2]; Day 9): 0.7 g/day
- Food intake (food weights in g/day) (C57BL/6 DIO mice [2]; Day 10): 0.9 g/day
- Food intake (food weights in g/day) (C57BL/6 DIO mice [2]; Day 11): 1.1 g/day
- Food intake (food weights in g/day) (C57BL/6 DIO mice [2]; Day 12): 1.3 g/day
- Food intake (food weights in g/day) (C57BL/6 DIO mice [2]; Day 13): 1.4 g/day
- Food intake (food weights in g/day) (C57BL/6 DIO mice [2]; Day 14): 1.2 g/day
- Food intake (food weights in g/day) (C57BL/6 DIO mice [2]; Day 15): 1.0 g/day
- food intake, average (C57BL/6 DIO mice [2]; from day 2 throughout the 15-day study, 0.2 mg/kg IP daily, vehicle around 2.2): 1.0 g/day/mouse
- Body weights (expressed as a percentage of day-1 weight) (C57BL/6-Magel2 mice; [3]): 100.0%
- Body weights (in grams) (C57BL/6-Magel2 mice; [3]): 26.6 grams
- Body weights (expressed as a percentage of day-1 weight) (C57BL/6-Magel2 mice; [4]): 100.0%
- Body weights (in grams) (C57BL/6-Magel2 mice; [4]): 20.5 grams
- Body weights (expressed as a percentage of day-1 weight) (C57BL/6-Magel2 mice; [5]): 99.6%
- Body weights (in grams) (C57BL/6-Magel2 mice; [5]): 26.5 grams
- Body weights (expressed as a percentage of day-1 weight) (C57BL/6-Magel2 mice; [6]): 101.2%
- Body weights (in grams) (C57BL/6-Magel2 mice; [6]): 20.8 grams
- Body weights (expressed as a percentage of day-1 weight) (C57BL/6-Magel2 mice; [7]): 101.1%
- Body weights (in grams) (C57BL/6-Magel2 mice; [7]): 26.9 grams
- Body weights (expressed as a percentage of day-1 weight) (C57BL/6-Magel2 mice; [8]): 105.6%
- Body weights (in grams) (C57BL/6-Magel2 mice; [8]): 21.7 grams
- Body weights (expressed as a percentage of day-1 weight) (C57BL/6-Magel2 mice; [9]): 99.4%
- Body weights (in grams) (C57BL/6-Magel2 mice; [9]): 26.4 grams
- Body weights (expressed as a percentage of day-1 weight) (C57BL/6-Magel2 mice; [10]): 107.1%
- Body weights (in grams) (C57BL/6-Magel2 mice; [10]): 22.0 grams
- Body weights (expressed as a percentage of day-1 weight) (C57BL/6-Magel2 mice; [11]): 101.3%
- Body weights (in grams) (C57BL/6-Magel2 mice; [11]): 26.9 grams
- Body weights (expressed as a percentage of day-1 weight) (C57BL/6-Magel2 mice; [12]): 106.2%
- Body weights (in grams) (C57BL/6-Magel2 mice; [12]): 21.8 grams
- Body weights (expressed as a percentage of day-1 weight) (C57BL/6-Magel2 mice; [13]): 96.4%
- Body weights (in grams) (C57BL/6-Magel2 mice; [13]): 25.6 grams
- Body weights (expressed as a percentage of day-1 weight) (C57BL/6-Magel2 mice; [14]): 100.9%
- Body weights (in grams) (C57BL/6-Magel2 mice; [14]): 20.7 grams
- Body weights (expressed as a percentage of day-1 weight) (C57BL/6-Magel2 mice; [15]): 94.4%
- Body weights (in grams) (C57BL/6-Magel2 mice; [15]): 25.1 grams
- Body weights (expressed as a percentage of day-1 weight) (C57BL/6-Magel2 mice; [16]): 95.6%
- Body weights (in grams) (C57BL/6-Magel2 mice; [16]): 19.6 grams
- Body weights (expressed as a percentage of day-1 weight) (C57BL/6-Magel2 mice; [17]): 94.2%
- Body weights (in grams) (C57BL/6-Magel2 mice; [17]): 25.0 grams
- Body weights (expressed as a percentage of day-1 weight) (C57BL/6-Magel2 mice; [18]): 93.5%
- Body weights (in grams) (C57BL/6-Magel2 mice; [18]): 19.2 grams
- Body weights (expressed as a percentage of day-1 weight) (C57BL/6-Magel2 mice; [19]): 93.9%
- Body weights (in grams) (C57BL/6-Magel2 mice; [19]): 25.0 grams
- Body weights (expressed as a percentage of day-1 weight) (C57BL/6-Magel2 mice; [20]): 95.0%
- Body weights (in grams) (C57BL/6-Magel2 mice; [20]): 19.5 grams
- Body weights (expressed as a percentage of day-1 weight) (C57BL/6-Magel2 mice; [21]): 85.0%
- Body weights (in grams) (C57BL/6-Magel2 mice; [21]): 22.6 grams
- Body weights (expressed as a percentage of day-1 weight) (C57BL/6-Magel2 mice; [22]): 85.3%
- Body weights (in grams) (C57BL/6-Magel2 mice; [22]): 17.5 grams
- Body weights (expressed as a percentage of day-1 weight) (C57BL/6-Magel2 mice; [23]): 83.0%
- Body weights (in grams) (C57BL/6-Magel2 mice; [23]): 22.1 grams
- Body weights (expressed as a percentage of day-1 weight) (C57BL/6-Magel2 mice; [24]): 85.6%
- Body weights (in grams) (C57BL/6-Magel2 mice; [24]): 17.6 grams
- Body weights (expressed as a percentage of day-1 weight) (C57BL/6-Magel2 mice; [25]): 84.5%
- Body weights (in grams) (C57BL/6-Magel2 mice; [25]): 22.5 grams
- Body weights (expressed as a percentage of day-1 weight) (C57BL/6-Magel2 mice; [26]): 88.8%
- Body weights (in grams) (C57BL/6-Magel2 mice; [26]): 18.3 grams
- Body weights (expressed as a percentage of day-1 weight) (C57BL/6-Magel2 mice; [27]): 83.8%
- Body weights (in grams) (C57BL/6-Magel2 mice; [27]): 22.3 grams
- Body weights (expressed as a percentage of day-1 weight) (C57BL/6-Magel2 mice; [28]): 89.6%
- Body weights (in grams) (C57BL/6-Magel2 mice; [28]): 18.4 grams
- body weight lost from day 1 to day 21 (C57BL/6-Magel2 mice; female homozygous Magel2 (−/−) mice): 10.4%
- body weight lost from day 1 to day 21 (C57BL/6-Magel2 mice; male heterozygous Magel2 (−/+) mice): 16.2%
- deaths or abnormal clinical signs (Magel2 mice): No deaths or abnormal clinical signs
